From US12637461B2, “Compounds for the activation of AMPK” (PFIZER INC., priority 2022, dated 2026)

Target: T1, human AMPK α2β2γ3 (Homo sapiens, UniProt O43741+P54646+Q9UGI9)
T1 construct: expressed in transfected cells; host or cells: HEK293AD cells, MaxCyte bulk electroporation
Assay: Primary cellular assay: γ3 associated phospho-Thr172 AMPK detection (custom pAMPK Surefire AlphaLISA) in α2β2γ3 bulk transiently transfected HEK293 cells
Format: cell-based
Settings: activation of human AMPK α2β2γ3 (γ3 pThr172 AMPK signal) in transiently transfected HEK293 cells, 20 minutes compound incubation; for Emax: 20 min, geometric mean of the asymptotic max, read-out: Assay GMean Asy. Max (%); for EC50: geometric mean EC50, read-out: Assay GMean EC50
Outline: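 Transiently co-transfected (α2/β2/γ3 plasmids, electroporation) HEK293AD cells, plated 2 days in low-glucose DMEM+10% FBS, treated 20 min with compounds (11-point half-log dilutions). Lysates read by modified AlphaLISA capturing γ3 with pThr172 antibody detection. % effect relative to 30 μM HPE and DMSO; EC50 and Emax from curve fit.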

T1 sequence (P54646 whole entry): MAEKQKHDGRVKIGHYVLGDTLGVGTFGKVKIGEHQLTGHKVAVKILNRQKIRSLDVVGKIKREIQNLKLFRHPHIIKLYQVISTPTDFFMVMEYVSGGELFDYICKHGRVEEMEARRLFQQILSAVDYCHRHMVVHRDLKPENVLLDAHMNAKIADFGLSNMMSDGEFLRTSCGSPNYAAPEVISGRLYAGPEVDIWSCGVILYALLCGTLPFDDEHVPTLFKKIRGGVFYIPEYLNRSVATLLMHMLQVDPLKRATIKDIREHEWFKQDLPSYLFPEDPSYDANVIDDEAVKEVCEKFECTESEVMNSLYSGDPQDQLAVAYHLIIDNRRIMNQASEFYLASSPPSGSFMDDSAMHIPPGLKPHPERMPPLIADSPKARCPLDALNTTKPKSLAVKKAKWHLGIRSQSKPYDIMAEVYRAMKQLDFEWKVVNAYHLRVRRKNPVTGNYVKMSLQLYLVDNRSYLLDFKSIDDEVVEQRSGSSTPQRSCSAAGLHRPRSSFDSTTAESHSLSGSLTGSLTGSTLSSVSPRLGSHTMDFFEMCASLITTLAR
T1 sequence (O43741 whole entry): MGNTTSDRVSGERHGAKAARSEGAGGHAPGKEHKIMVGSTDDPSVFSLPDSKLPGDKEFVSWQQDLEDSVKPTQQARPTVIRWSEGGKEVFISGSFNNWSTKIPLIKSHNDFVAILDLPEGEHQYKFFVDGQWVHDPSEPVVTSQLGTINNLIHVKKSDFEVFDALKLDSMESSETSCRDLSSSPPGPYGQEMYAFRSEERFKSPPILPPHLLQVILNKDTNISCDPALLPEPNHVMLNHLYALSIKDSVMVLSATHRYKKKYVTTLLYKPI
T1 sequence (Q9UGI9 whole entry): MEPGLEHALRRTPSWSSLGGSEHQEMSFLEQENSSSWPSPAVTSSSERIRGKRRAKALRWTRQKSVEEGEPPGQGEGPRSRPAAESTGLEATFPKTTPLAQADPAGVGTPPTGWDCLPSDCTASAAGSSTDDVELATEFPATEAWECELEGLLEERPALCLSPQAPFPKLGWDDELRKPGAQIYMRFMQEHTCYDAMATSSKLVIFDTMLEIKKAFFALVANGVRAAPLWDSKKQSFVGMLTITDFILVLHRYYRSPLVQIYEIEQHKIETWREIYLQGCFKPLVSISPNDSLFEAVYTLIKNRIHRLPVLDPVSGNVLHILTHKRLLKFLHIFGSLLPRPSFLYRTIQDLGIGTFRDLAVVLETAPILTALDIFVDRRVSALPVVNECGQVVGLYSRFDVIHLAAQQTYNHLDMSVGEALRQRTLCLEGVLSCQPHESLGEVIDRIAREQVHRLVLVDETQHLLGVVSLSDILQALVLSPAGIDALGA

Q: `Cn1cc(F)c(N2C[C@](C)(c3cccc(Cl)c3F)c3c(cnc(NC4CN(C(=O)C5(O)CC5)C4)c3F)C2=O)n1` [compound 62, (4R)-4-(3-chloro-2-fluorophenyl)-5-fluoro-2-(4-fluoro-1-methyl-1H-pyrazol-3-yl)-6-{[1-(1-hydroxycyclopropane-1-carbonyl)azetidin-3-yl]amino}-4-methyl-3,4-dihydro-2,7-naphthyridin-1(2H)-one] was tested. Which Emax did it give?
A: 138%

Q: What about the EC50 of the same molecule?
A: 0.0981 µM

Q: Which results are given for `Cn1cc(F)c(N2C[C@](C)(c3cccc(Cl)c3F)c3c(cnc(NC4CN(C(=O)CC(F)(F)F)C4)c3F)C2=O)n1` [compound 63, (4R)-4-(3-chloro-2-fluorophenyl)-5-fluoro-2-(4-fluoro-1-methyl-1H-pyrazol-3-yl)-4-methyl-6-{[1-(3,3,3-trifluoropropanoyl)azetidin-3-yl]amino}-3,4-dihydro-2,7-naphthyridin-1(2H)-one]?
A: Emax: 90%; EC50: 0.0551 µM

Q: What does the source list for `Cn1cc(F)c(N2C[C@](C)(c3cccc(Cl)c3F)c3c(cnc(NC4CN(C(=O)CC(C)(C)O)C4)c3F)C2=O)n1` [compound 64, (4R)-4-(3-chloro-2-fluorophenyl)-5-fluoro-2-(4-fluoro-1-methyl-1H-pyrazol-3-yl)-6-{[1-(3-hydroxy-3-methylbutanoyl)azetidin-3-yl]amino}-4-methyl-3,4-dihydro-2,7-naphthyridin-1(2H)-one]?
A: Emax: 80.4%; EC50: 0.159 µM

Q: `Cn1cc(F)c(N2C[C@](C)(c3cccc(Cl)c3F)c3c(cnc(NC4CN(CC(=O)N5CCCC5)C4)c3F)C2=O)n1` [compound 65, (4R)-4-(3-chloro-2-fluorophenyl)-5-fluoro-2-(4-fluoro-1-methyl-1H-pyrazol-3-yl)-4-methyl-6-({1-[2-oxo-2-(pyrrolidin-1-yl)ethyl]azetidin-3-yl}amino)-3,4-dihydro-2,7-naphthyridin-1(2H)-one] was tested. Which Emax did it give?
A: 83.4%

Q: And the EC50?
A: 0.0551 µM

Q: `CCN(C)C(=O)CN1CC(Nc2ncc3c(c2F)[C@@](C)(c2cccc(Cl)c2F)CN(c2nn(C)cc2F)C3=O)C1` [compound 66, 2-(3-{[(5R)-5-(3-chloro-2-fluorophenyl)-4-fluoro-7-(4-fluoro-1-methyl-1H-pyrazol-3-yl)-5-methyl-8-oxo-5,6,7,8-tetrahydro-2,7-naphthyridin-3-yl]amino}azetidin-1-yl)-N-ethyl-N-methylacetamide] was tested. Which Emax did it give?
A: 88.8%

Q: And the EC50?
A: 0.0298 µM

Q: How did the Emax turn out when `CNC(=O)CN1CC(Nc2ncc3c(c2F)[C@@](C)(c2cccc(Cl)c2F)CN(c2nn(C)cc2F)C3=O)C1` [compound 67, 2-(3-{[(5R)-5-(3-chloro-2-fluorophenyl)-4-fluoro-7-(4-fluoro-1-methyl-1H-pyrazol-3-yl)-5-methyl-8-oxo-5,6,7,8-tetrahydro-2,7-naphthyridin-3-yl]amino}azetidin-1-yl)-N-methylacetamide] was run?
A: 40.1%

Q: What about the EC50 of the same molecule?
A: 0.0768 µM

Q: `Cn1cc(F)c(N2C[C@](C)(c3cccc(Cl)c3F)c3c(cnc(NC4CN(CC(N)=O)C4)c3F)C2=O)n1` [compound 68, 2-(3-{[(5R)-5-(3-chloro-2-fluorophenyl)-4-fluoro-7-(4-fluoro-1-methyl-1H-pyrazol-3-yl)-5-methyl-8-oxo-5,6,7,8-tetrahydro-2,7-naphthyridin-3-yl]amino}azetidin-1-yl)acetamide] was tested. Which Emax did it give?
A: 29.6%

Q: And the EC50?
A: 0.247 µM

Q: Which Emax does the source give for `CN(CC1CC1)C(=O)CN1CC(Nc2ncc3c(c2F)[C@@](C)(c2cccc(Cl)c2F)CN(c2nn(C)cc2F)C3=O)C1` [compound 73, 2-(3-{[(5R)-5-(3-chloro-2-fluorophenyl)-4-fluoro-7-(4-fluoro-1-methyl-1H-pyrazol-3-yl)-5-methyl-8-oxo-5,6,7,8-tetrahydro-2,7-naphthyridin-3-yl]amino}azetidin-1-yl)-N-(cyclopropylmethyl)-N-methylacetamide] here?
A: 46.1%

Q: And the EC50?
A: 0.0453 µM

Q: `Cn1cc(F)c(N2C[C@](C)(c3cccc(Cl)c3F)c3c(cnc(NC4CN(CC(=O)N(CC(F)(F)F)C5CC5)C4)c3F)C2=O)n1` [compound 74, 2-(3-{[(5R)-5-(3-chloro-2-fluorophenyl)-4-fluoro-7-(4-fluoro-1-methyl-1H-pyrazol-3-yl)-5-methyl-8-oxo-5,6,7,8-tetrahydro-2,7-naphthyridin-3-yl]amino}azetidin-1-yl)-N-cyclopropyl-N-(2,2,2-trifluoroethyl)acetamide] was tested. Which Emax did it give?
A: 129%

Q: What about the EC50 of the same molecule?
A: 0.0399 µM

Q: How did the Emax turn out when `COCCN(C(=O)CN1CC(Nc2ncc3c(c2F)[C@@](C)(c2cccc(Cl)c2F)CN(c2nn(C)cc2F)C3=O)C1)C1CC1` [compound 75, 2-(3-{[(5R)-5-(3-chloro-2-fluorophenyl)-4-fluoro-7-(4-fluoro-1-methyl-1H-pyrazol-3-yl)-5-methyl-8-oxo-5,6,7,8-tetrahydro-2,7-naphthyridin-3-yl]amino}azetidin-1-yl)-N-cyclopropyl-N-(2-methoxyethyl)acetamide] was run?
A: 134%

Q: What about the EC50 of the same molecule?
A: 0.0521 µM

Q: How did the Emax turn out when `Cn1cc(F)c(N2C[C@](C)(c3cccc(Cl)c3F)c3c(cnc(NC4CN(C(=O)CN[C@@H]5CCOC5)C4)c3F)C2=O)n1` [compound 76, (4R)-4-(3-chloro-2-fluorophenyl)-5-fluoro-2-(4-fluoro-1-methyl-1H-pyrazol-3-yl)-4-methyl-6-{[1-{{[(3R)-oxolan-3-yl]amino}acetyl)azetidin-3-yl]amino}-3,4-dihydro-2,7-naphthyridin-1(2H)-one] was run?
A: 59.3%

Q: What about the EC50 of the same molecule?
A: 0.0566 µM

Q: What does the source list for `C[C@]1(c2cccc(Cl)c2F)CN(c2cc(F)c(CO)cc2F)C(=O)c2cnc(NC3CN(C(=O)[C@@H]4C[C@@H]4F)C3)c(F)c21` [compound 77, (4R)-4-(3-chloro-2-fluorophenyl)-2-[2,5-difluoro-4-(hydroxymethyl)phenyl]-5-fluoro-6-({1-[(1S,2S)-2-fluorocyclopropane-1-carbonyl]azetidin-3-yl}amino)-4-methyl-3,4-dihydro-2,7-naphthyridin-1(2H)-one]?
A: Emax: 78.2%; EC50: 0.0384 µM

Q: How did the Emax turn out when `Cn1cc(F)c(N2C[C@](C)(c3cccc(Cl)c3F)c3c(cnc(NC4CN(C(=O)[C@@H]5C[C@H]5F)C4)c3F)C2=O)n1` [compound 78, (4R)-4-(3-chloro-2-fluorophenyl)-5-fluoro-6-({1-[(1S,2R)-2-fluorocyclopropane-1-carbonyl]azetidin-3-yl}amino)-2-(4-fluoro-1-methyl-1H-pyrazol-3-yl)-4-methyl-3,4-dihydro-2,7-naphthyridin-1(2H)-one] was run?
A: 80.7%

Q: What about the EC50 of the same molecule?
A: 0.0623 µM

Q: Which results are given for `CNCc1ccc(N2CC(C)(c3cccc(Cl)c3F)c3nc(NC4CN(C(=O)C5CC5F)C4)ncc3C2=O)cc1F` [compound 80, 8-(3-chloro-2-fluorophenyl)-2-({1-[(1S,2S)-2-fluorocyclopropane-1-carbonyl]azetidin-3-yl}amino)-6-{3-fluoro-4-[(methylamino)methyl]phenyl}-8-methyl-7,8-dihydropyrido[4,3-d]pyrimidin-5(6H)-one, from P11 (ENANT-2)]?
A: Emax: 154%; EC50: 2.5 µM

Q: Which results are given for `CC(C)(CO)NC(=O)N1CC(Nc2ncc3c(n2)C(C)(c2cccc(Cl)c2F)CN(c2ncccc2F)C3=O)C1` (stereo not drawn) [compound 87, 3-{[8-(3-chloro-2-fluorophenyl)-6-(3-fluoropyridin-2-yl)-8-methyl-5-oxo-5,6,7,8-tetrahydropyrido[4,3-d]pyrimidin-2-yl]amino}-N-(1-hydroxy-2-methylpropan-2-yl)azetidine-1-carboxamide, from P13 (ENANT-2)]?
A: Emax: 175%; EC50: 0.152 µM
